{"source": "the supplement of paper PMC10307832", "assay_in_all_cases": "relative viability (nuclei count vs DMSO), 5 days (fraction); higher = more cells survive", "key": {"XMD8-85 + Luminespib": {"compound": "CN1CCN(CC1)C2=CC(=C(C=C2)NC3=NC=C4C(=N3)N(C5=CC=CC=C5C(=O)N4C)C)OC [XMD8-85] + CCNC(=O)c1noc(-c2cc(C(C)C)c(O)cc2O)c1-c1ccc(CN2CCOCC2)cc1 [Luminespib] (partner 0.01 µM)", "method_in_brief": "(§1)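 The day after seeding in 1536-well plates, lung cancer cell lines were treated by pin tool with a single drug, or with a fixed anchor-drug dose together with five library-drug doses (not always all listed) in √10 steps. After 5 days, a combined fix-and-stain solution (final 0.05% Triton X-100, 1% formaldehyde, 1 ug/ml Hoechst) was added. Nuclei counted on 4× images gave relative viability as treated counts over vehicle counts, reported as the median of duplicate plates.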"}, "XMD8-85 + Olaparib": {"compound": "CN1CCN(CC1)C2=CC(=C(C=C2)NC3=NC=C4C(=N3)N(C5=CC=CC=C5C(=O)N4C)C)OC [XMD8-85] + O=C(c1cc(Cc2n[nH]c(=O)c3ccccc23)ccc1F)N1CCN(C(=O)C2CC2)CC1 [Olaparib] (partner 8 µM)", "method_in_brief": "as §1"}, "4EGI-1 + Pictilisib": {"compound": "O=C(O)C(Cc1ccccc1[N+](=O)[O-])=NNc1nc(-c2ccc(Cl)c(Cl)c2)cs1 (mixture of isomers) [4EGI-1] + CS(=O)(=O)N1CCN(Cc2cc3nc(-c4cccc5[nH]ncc45)nc(N4CCOCC4)c3s2)CC1 [Pictilisib] (partner 1 µM)", "method_in_brief": "as §1"}, "4EGI-1 + AZD7762": {"compound": "O=C(O)C(Cc1ccccc1[N+](=O)[O-])=NNc1nc(-c2ccc(Cl)c(Cl)c2)cs1 (mixture of isomers) [4EGI-1] + NC(=O)Nc1cc(-c2cccc(F)c2)sc1C(=O)N[C@H]1CCCNC1 [AZD7762] (partner 0.2 µM)", "method_in_brief": "as §1"}}, "data": [{"cell line": "NCI-H1355", "values": [{"measurement": "relative viability", "setting": "XMD8-85 + Luminespib; first compound 0.08 µM", "value": 0.528}, {"measurement": "relative viability", "setting": "XMD8-85 + Luminespib; first compound 0.253 µM", "value": 0.747}, {"measurement": "relative viability", "setting": "XMD8-85 + Luminespib; first compound 0.8 µM", "value": 0.697}, {"measurement": "relative viability", "setting": "XMD8-85 + Luminespib; first compound 2.53 µM", "value": 0.642}, {"measurement": "relative viability", "setting": "XMD8-85 + Luminespib; first compound 8 µM", "value": 0.6}, {"measurement": "relative viability", "setting": "XMD8-85 + Olaparib; first compound 0.08 µM", "value": 0.744}, {"measurement": "relative viability", "setting": "XMD8-85 + Olaparib; first compound 0.253 µM", "value": 0.79}, {"measurement": "relative viability", "setting": "XMD8-85 + Olaparib; first compound 0.8 µM", "value": 0.714}, {"measurement": "relative viability", "setting": "XMD8-85 + Olaparib; first compound 2.53 µM", "value": 0.657}, {"measurement": "relative viability", "setting": "XMD8-85 + Olaparib; first compound 8 µM", "value": 0.589}, {"measurement": "relative viability", "setting": "4EGI-1 + Pictilisib; first compound 0.5 µM", "value": 0.372}, {"measurement": "relative viability", "setting": "4EGI-1 + Pictilisib; first compound 1.581 µM", "value": 0.396}, {"measurement": "relative viability", "setting": "4EGI-1 + Pictilisib; first compound 5 µM", "value": 0.493}, {"measurement": "relative viability", "setting": "4EGI-1 + Pictilisib; first compound 15.81 µM", "value": 0.362}, {"measurement": "relative viability", "setting": "4EGI-1 + Pictilisib; first compound 50 µM", "value": 0.277}, {"measurement": "relative viability", "setting": "4EGI-1 + AZD7762; first compound 0.5 µM", "value": 0.865}, {"measurement": "relative viability", "setting": "4EGI-1 + AZD7762; first compound 1.581 µM", "value": 0.69}, {"measurement": "relative viability", "setting": "4EGI-1 + AZD7762; first compound 5 µM", "value": 0.801}, {"measurement": "relative viability", "setting": "4EGI-1 + AZD7762; first compound 15.81 µM", "value": 0.769}, {"measurement": "relative viability", "setting": "4EGI-1 + AZD7762; first compound 50 µM", "value": 0.27}]}, {"cell line": "NCI-H1395", "values": [{"measurement": "relative viability", "setting": "XMD8-85 + Luminespib; first compound 0.08 µM", "value": 0.784}, {"measurement": "relative viability", "setting": "XMD8-85 + Luminespib; first compound 0.253 µM", "value": 0.603}, {"measurement": "relative viability", "setting": "XMD8-85 + Luminespib; first compound 0.8 µM", "value": 0.731}, {"measurement": "relative viability", "setting": "XMD8-85 + Luminespib; first compound 2.53 µM", "value": 0.684}, {"measurement": "relative viability", "setting": "XMD8-85 + Luminespib; first compound 8 µM", "value": 0.482}, {"measurement": "relative viability", "setting": "XMD8-85 + Olaparib; first compound 0.08 µM", "value": 0.421}, {"measurement": "relative viability", "setting": "XMD8-85 + Olaparib; first compound 0.253 µM", "value": 0.426}, {"measurement": "relative viability", "setting": "XMD8-85 + Olaparib; first compound 0.8 µM", "value": 0.43}, {"measurement": "relative viability", "setting": "XMD8-85 + Olaparib; first compound 2.53 µM", "value": 0.474}, {"measurement": "relative viability", "setting": "XMD8-85 + Olaparib; first compound 8 µM", "value": 0.452}, {"measurement": "relative viability", "setting": "4EGI-1 + Pictilisib; first compound 0.5 µM", "value": 0.638}, {"measurement": "relative viability", "setting": "4EGI-1 + Pictilisib; first compound 5 µM", "value": 0.735}, {"measurement": "relative viability", "setting": "4EGI-1 + Pictilisib; first compound 15.81 µM", "value": 0.567}, {"measurement": "relative viability", "setting": "4EGI-1 + Pictilisib; first compound 50 µM", "value": 0.346}, {"measurement": "relative viability", "setting": "4EGI-1 + AZD7762; first compound 0.5 µM", "value": 0.44}, {"measurement": "relative viability", "setting": "4EGI-1 + AZD7762; first compound 5 µM", "value": 0.393}, {"measurement": "relative viability", "setting": "4EGI-1 + AZD7762; first compound 15.81 µM", "value": 0.344}, {"measurement": "relative viability", "setting": "4EGI-1 + AZD7762; first compound 50 µM", "value": 0.374}]}, {"cell line": "NCI-H1437", "values": [{"measurement": "relative viability", "setting": "XMD8-85 + Luminespib; first compound 0.08 µM", "value": 1.15}, {"measurement": "relative viability", "setting": "XMD8-85 + Luminespib; first compound 0.253 µM", "value": 1.19}, {"measurement": "relative viability", "setting": "XMD8-85 + Luminespib; first compound 0.8 µM", "value": 1.15}, {"measurement": "relative viability", "setting": "XMD8-85 + Luminespib; first compound 2.53 µM", "value": 1.07}, {"measurement": "relative viability", "setting": "XMD8-85 + Luminespib; first compound 8 µM", "value": 0.813}, {"measurement": "relative viability", "setting": "XMD8-85 + Olaparib; first compound 0.08 µM", "value": 0.611}, {"measurement": "relative viability", "setting": "XMD8-85 + Olaparib; first compound 0.253 µM", "value": 0.62}, {"measurement": "relative viability", "setting": "XMD8-85 + Olaparib; first compound 0.8 µM", "value": 0.657}, {"measurement": "relative viability", "setting": "XMD8-85 + Olaparib; first compound 2.53 µM", "value": 0.611}, {"measurement": "relative viability", "setting": "XMD8-85 + Olaparib; first compound 8 µM", "value": 0.439}, {"measurement": "relative viability", "setting": "4EGI-1 + Pictilisib; first compound 0.5 µM", "value": 0.532}, {"measurement": "relative viability", "setting": "4EGI-1 + Pictilisib; first compound 1.581 µM", "value": 0.478}, {"measurement": "relative viability", "setting": "4EGI-1 + Pictilisib; first compound 5 µM", "value": 0.533}, {"measurement": "relative viability", "setting": "4EGI-1 + Pictilisib; first compound 15.81 µM", "value": 0.256}, {"measurement": "relative viability", "setting": "4EGI-1 + Pictilisib; first compound 50 µM", "value": 0.126}, {"measurement": "relative viability", "setting": "4EGI-1 + AZD7762; first compound 0.5 µM", "value": 1.09}, {"measurement": "relative viability", "setting": "4EGI-1 + AZD7762; first compound 1.581 µM", "value": 1.01}, {"measurement": "relative viability", "setting": "4EGI-1 + AZD7762; first compound 5 µM", "value": 1.09}, {"measurement": "relative viability", "setting": "4EGI-1 + AZD7762; first compound 15.81 µM", "value": 0.525}, {"measurement": "relative viability", "setting": "4EGI-1 + AZD7762; first compound 50 µM", "value": 0.315}]}, {"cell line": "NCI-H1651", "values": [{"measurement": "relative viability", "setting": "XMD8-85 + Luminespib; first compound 0.08 µM", "value": 0.785}, {"measurement": "relative viability", "setting": "XMD8-85 + Luminespib; first compound 0.253 µM", "value": 1.08}, {"measurement": "relative viability", "setting": "XMD8-85 + Luminespib; first compound 0.8 µM", "value": 0.774}, {"measurement": "relative viability", "setting": "XMD8-85 + Luminespib; first compound 2.53 µM", "value": 0.667}, {"measurement": "relative viability", "setting": "XMD8-85 + Luminespib; first compound 8 µM", "value": 0.46}, {"measurement": "relative viability", "setting": "XMD8-85 + Olaparib; first compound 0.08 µM", "value": 0.166}, {"measurement": "relative viability", "setting": "XMD8-85 + Olaparib; first compound 0.253 µM", "value": 0.19}, {"measurement": "relative viability", "setting": "XMD8-85 + Olaparib; first compound 0.8 µM", "value": 0.181}, {"measurement": "relative viability", "setting": "XMD8-85 + Olaparib; first compound 2.53 µM", "value": 0.172}, {"measurement": "relative viability", "setting": "XMD8-85 + Olaparib; first compound 8 µM", "value": 0.16}, {"measurement": "relative viability", "setting": "4EGI-1 + Pictilisib; first compound 0.5 µM", "value": 0.627}, {"measurement": "relative viability", "setting": "4EGI-1 + Pictilisib; first compound 1.581 µM", "value": 0.632}, {"measurement": "relative viability", "setting": "4EGI-1 + Pictilisib; first compound 5 µM", "value": 0.576}, {"measurement": "relative viability", "setting": "4EGI-1 + Pictilisib; first compound 15.81 µM", "value": 0.508}, {"measurement": "relative viability", "setting": "4EGI-1 + Pictilisib; first compound 50 µM", "value": 0.21}, {"measurement": "relative viability", "setting": "4EGI-1 + AZD7762; first compound 0.5 µM", "value": 0.519}, {"measurement": "relative viability", "setting": "4EGI-1 + AZD7762; first compound 1.581 µM", "value": 0.43}, {"measurement": "relative viability", "setting": "4EGI-1 + AZD7762; first compound 5 µM", "value": 0.521}, {"measurement": "relative viability", "setting": "4EGI-1 + AZD7762; first compound 15.81 µM", "value": 0.31}, {"measurement": "relative viability", "setting": "4EGI-1 + AZD7762; first compound 50 µM", "value": 0.195}]}]}
